Legend:
[1] = system: estrogen-negative mammary cancers; assay: DMBA-induced mammary carcinogenesis in transgenic erbB2+/− mice; format: in vivo; settings: orally administered, female transgenic erbB2+/− mice, vs control mice, FIG. 1
Description: FIG. 1 is a graph showing the efficacy of 9-cis-UAB30, TARGRETIN, Compound UAB125, and Compound UAB126 in preventing the formation of mammary cancers in ErbB2^+/− female mice. The first bar represents the controls for 9-cis-UAB30 and TARGRETIN. The fourth bar represents the controls for UAB125 and UAB126.
Mammary carcinogenesis was induced in female, transgenic erbB2^+/− mice using 7,12-Dimethylbenz[a]anthracene (DMBA). The mice were orally administered 9-cis-UAB30 (a tissue selective rexinoid), TARGRETIN® (Valeant Pharmaceuticals, West Laurel, Calif.) (i.e., bexarotene, which is a potent RXR agonist), UAB125, or UAB126. The control mice were not administered any compounds. […] Specifically, UAB125 and UAB126 prevented the formation of 68% and 79%, respectively, of the estrogen-negative mammary cancers, while 9-cis-UAB30 and TARGRETIN® prevented only 54% and 65%, respectively.

[2] = Serum triglyceride, cholesterol and free fatty acids in high fat diet fed mice; format: in vivo, C57BL/6J mice
Description: (§1) Twelve C57BL/6J mice were randomly divided into two groups, namely high fat diet (HFD) (60% of calories from fat) fed with or without Compound UAB126 (1.5 g/kg food) for 10 weeks.
Previously developed rexinoids have the adverse side effect of elevating serum triglyceride (TG) level. […] Thus, Compound UAB126 can regulate lipid metabolism.

[3] = High fat diet-induced obesity: body weight, body composition (QMR), food intake; format: in vivo, C57BL/6J mice
Description: as §1
(§2) Also, fasting glucose levels in mice fed HFD with Compound UAB126 were lower than mice fed HFD (FIG. 5). […] Food intake was not different between the 2 groups.

[4] = Glucose tolerance, insulin sensitivity and fasting glucose in high fat diet fed mice; format: in vivo, C57BL/6J mice; settings: HFD with compound
Description: as §1, §2

[5] = QMR, normalized by body weight, FIG. 6B
[6] = QMR, without normalization, FIG. 6A

C=C(c1ccc(C(=O)O)cc1)c1cc2c(cc1C)C(C)(C)CCC2(C)C [TARGRETIN, bexarotene, reference compound]
prevention of formation of estrogen-negative mammary cancers [1]: 65%

Cc1ccc(-c2cccc(C=CC(=O)O)c2)c2ccccc12 (single isomer, unassigned) [UAB125, 3-(3-(4-methyl-1-naphthyl)phenyl)propenoic acid]
prevention of formation of estrogen-negative mammary cancers [1]: 68%

CC(=C/C=C/C(C)=C/C(=O)O)/C=C1\CCCc2ccccc21 [Compound 9-cis-UAB30, reference compound]
prevention of formation of estrogen-negative mammary cancers [1]: 54%

O=C(O)C=Cc1ccc(-c2cccc3ccccc23)cc1 (single isomer, unassigned) [UAB126, 3-(4-(1-naphthyl)phenyl)propenoic acid]
serum triglyceride levels ([2]; HFD with compound vs HFD, FIG. 7): significantly reduced | serum cholesterol ([2]; compared to HFD vehicle treated mice, FIG. 8A): significantly decreased | serum free fatty acids (FFA) ([2]; compared to HFD vehicle treated mice, FIG. 8B): significantly decreased | final body weight (avg.) ([3]; HFD (60% of calories from fat) with compound 1.5 g/kg food, 10 weeks, avg. initial 22.5 g, HFD alone: initial 23 g, final 40 g, FIG. 2): 27.8 g | body weight gain compared to HFD fed mice without compound ([3]; HFD with compound 1.5 g/kg food, 10 weeks, FIG. 2): gained less body weight | fat mass normalized by body weight, compared to HFD fed mice [3, 5]: less fat mass | lean mass normalized by body weight, compared to HFD fed mice [3, 5]: more lean mass | fat mass [3, 6]: markedly reduced | lean mass [3, 6]: slightly reduced | glucose tolerance vs mice fed HFD alone ([4]; FIG. 3): more glucose tolerant | insulin sensitivity vs mice fed HFD alone ([4]; FIG. 4): insulin sensitive | fasting glucose levels vs mice fed HFD ([4]; FIG. 5): lower | prevention of formation of estrogen-negative mammary cancers [1]: 79%
